Experimental data: PubChem BioAssay (NCI)
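Where inhibition never reached the appropriate level, the endpoint shown equals the highest concentration tested. Otherwise, values were interpolated linearly from a five-concentration, 48-hour dose response in 96-well plates. At the GI50, growth is halved. TGI: concentration producing complete growth inhibition.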

What follows are compounds tested on MDA-MB-468 breast (assay: growth of human tumour cells (NCI), 48 h).
For `CNCC#Cc1c(F)ccc2c1/C(=C/c1[nH]ccc1OC)C(=O)N2`, the GI50 was 0.279 µM and the TGI was 0.858 µM. `CN1C(=O)N(C)C2C1NN=c1s/c(=C\c3ccc(Cl)cc3Cl)c(=O)n12` (centres undefined) showed a GI50 of 0.183 µM and a TGI of 33.4 µM. `[Cl][Hg][c]1cc[c]([Hg][Cl])o1` showed a GI50 of 1.58 µM and a TGI of 3.32 µM. `O=C(N[C@@H](c1ccc(Cl)c(Cl)c1)C1CNC1)c1ccc2cnccc2c1` was tested, and the GI50 was 0.0617 µM and the TGI was 0.638 µM. `Cn1cc(C2=C(c3cn(CCCCO)c4ccccc34)C(=O)NC2=O)c2ccccc21` was tested, and the GI50 was 12 µM and the TGI was greater than 25 µM. For `C=C(C)[C@@H]1CC[C@]2(C)[C@H](CC=C3[C@@H]4CC(C)(C)CC[C@]4(C(N)=O)CC[C@]32C)[C@@]1(C)CCC#N`, the GI50 was 2.41 µM and the TGI was 8.42 µM. With `CCCN1C(=O)N(CCC)C2C1NC(=S)N2/N=C/C=C/c1ccccc1OC` (centres undefined) the GI50 was 0.372 µM and the TGI was 17 µM. Compound `CCOC(=O)Nc1ccc(-c2nc(-c3cccc(OCCN4CCOCC4)c3)c(-c3ccnc(Br)c3)[nH]2)cc1` has a GI50 of 1.68 µM and a TGI of 3.66 µM. Work on `Cn1cc(-c2csc(-c3c[nH]c4ccc(F)cc34)n2)c2cnccc21` yielded a GI50 of 1.45 µM and a TGI of 3.19 µM. Work on `CCOC(=O)C(Cc1ccc(CCCC(=O)NCCC(=O)Nc2ccc3nc(C)sc3c2)cc1)C(=O)OCC` yielded a GI50 of 17.6 µM and a TGI of 58.1 µM. Compound `C#C[C@]1(O)CCC2C3CCc4cc(O)ccc4C3CC[C@@]21C` (some centres undefined) has a GI50 of 1.84 µM and a TGI of 6.2 µM. `Nc1c(C(=O)Nc2ccncc2)sc2nc3c(cc12)CCCCCCCC3` showed a GI50 of 0.966 µM and a TGI of 1.76 µM. Compound `CC(=O)OC12C=CC(=O)N1c1ccccc1C(=O)O2` (centres undefined) has a GI50 greater than 100 µM and a TGI greater than 100 µM. Work on `COc1ccc(-c2nn(-c3ccc(NC(=O)c4ccc(Cl)c(Cl)c4)cc3)cc2-c2ccncc2)cc1Cl` yielded a GI50 of 3.15 µM and a TGI greater than 50 µM. Work on `COc1cc(Cn2c(-c3ccccc3)c(Cl)c3c2-c2oncc2CC3)cc(OC)c1` yielded a GI50 of 2.49 µM and a TGI of 7.69 µM. In the case of `C[C@@H]1CC[C@@H]2[C@@H]1[C@H](OC(=O)/C=C/c1ccccc1)[C@]1(C3CCCCC3)C[C@@H](OC(=O)CO)[C@@]2(C)O1`, the GI50 is reported as 3.33 µM and the TGI is reported as 11.1 µM. `CC(=O)O[C@@H]1C[C@H]2O[C@@H]3C=C(C)CC[C@]3(C)[C@]1(C)[C@]21CO1` was tested, and the GI50 was 4.92 µM and the TGI was 18.2 µM. Compound `O=C(Nc1ccncc1)C(=O)c1cn(S(=O)(=O)c2ccc(F)cc2)c2ccccc12` has a GI50 of 1.67 µM and a TGI greater than 100 µM. With `Cc1ccc(NC(=O)CC2CC2)cc1-c1ccc(C(=O)NCC2CC2)cc1` the GI50 was greater than 15 µM and the TGI was greater than 25 µM. For `CC[C@H]1[C@@H]2C=C[C@@H]3[C@H]4C/C=C\C(=O)NCCC[C@@H]5NC(=O)/C(=C(O)/C=C/[C@@H]4C[C@@H]3[C@H]2C[C@H]1C)C5=O`, the GI50 was 2.02 µM and the TGI was 5.16 µM. Work on `COc1cc(F)ccc1-c1ncnc(Nc2cccc(CS(C)(=N)=O)c2)n1` (centres undefined) yielded a GI50 of 0.895 µM and a TGI of 5.56 µM. For `Cc1ncc(C(=O)Nc2ccc(CN3CCN(C)CC3)c(C(F)(F)F)c2)cc1C#Cc1cnc(N)c2ccncc12`, the GI50 was 1.87 µM and the TGI was 4.4 µM. Work on `Cc1nn(-c2ccc(Cl)cc2)c2nc3c(nc12)C(=O)c1ccccc1-3` yielded a GI50 of 58.5 µM and a TGI greater than 100 µM. `CCSc1ncnc2c1ncn2C1OC(CO)C(O)C1O` (centres undefined) showed a GI50 of 0.583 µM and a TGI of 17.6 µM. `C=CCCCCOc1ccccc1-c1cnc(OCCCCC=C)n1C` showed a GI50 of 1.93 µM and a TGI of 7.86 µM. Compound `O=C(CC1(O)C(=O)N(Cc2ccccc2)c2ccc(F)cc21)c1ccc(C(=O)NCC2CCC3(CC2)OOC2(CCCCC2)OO3)cc1` (centres undefined) has a GI50 of 1.35 µM and a TGI of 3.39 µM. `COc1cccc2c1C(=O)c1c(O)c3c(c(O)c1C2=O)C[C@](O)(C(=O)CO)C[C@H]3O[C@@H]1C[C@@H](NC(=O)CCCCCN(C)C2(c3ccc(F)cc3)CC3CCC2C3)[C@H](O)[C@@H](C)O1` (some centres undefined) was tested, and the GI50 was 5.87 µM and the TGI was 13.5 µM. For `COc1ccc(C(=O)/C=C/c2cc(-c3cc(OC)c(OC)c(OC)c3)n[nH]2)cc1OC`, the GI50 was 0.759 µM and the TGI was 2.18 µM. With `COc1cc(-c2cc(-c3cc4c([nH]c5ccccc54)c(-c4cc(OC)c(OC)c(OC)c4)n3)cc(-c3ccccc3)n2)cc(OC)c1OC` the GI50 was 1.73 µM and the TGI was 4.61 µM. In the case of `CC(C)Oc1ccc2cc(-c3nn(CC4CCNCC4)c4ncnc(N)c34)ccc2c1`, the GI50 is reported as 6.9 µM and the TGI is reported as 21 µM. `COc1ccc2[nH]cc(C3(c4c[nH]c5ccc(OC)cc45)C(=O)Nc4ccc(F)cc43)c2c1` gave a GI50 of 2.07 µM and a TGI of 5.67 µM. For `COc1cc2c(c(OC)c1OC)-c1ccc(SC)c(=O)cc1C(NC=O)CC2` (centres undefined), the GI50 was less than 0.01 µM and the TGI was greater than 100 µM. Compound `O=C(c1ccccc1)c1cc2ccccc2o1` has a GI50 of 48.2 µM and a TGI greater than 100 µM. With `CS(=O)(=O)CCNCc1nc(-c2ccc3ncnc(Nc4ccc(OCc5cccc(C(F)(F)F)c5)cc4)c3c2)cs1` the GI50 was 1.55 µM and the TGI was greater than 20.9 µM. In the case of `Cc1cc2nc3c4cc(Cl)ccc4n(CC(=S)NCCN(C)C)c3nc2cc1C`, the GI50 is reported as 1.95 µM and the TGI is reported as 3.96 µM. For `COc1c(OC[C@H](O)CN2CCOCC2)ccc2c3n(c(=NC(=O)c4cccnc4C)nc12)CCN3`, the GI50 was 0.143 µM and the TGI was 1.95 µM. With `O=C1OCC2=C1C(c1cccc(Br)c1)c1cc3c(cc1N2CCO)CCC3` (centres undefined) the GI50 was 0.0436 µM and the TGI was 1.14 µM.
